In the supplement of paper PMC10307832:

Legend:
Assay in all cases: relative viability (nuclei count vs DMSO), 5 days (fraction); higher = more cells survive
[1] = compound: NC1(c2ccc(-c3nc4ccn5c(=O)[nH]nc5c4cc3-c3ccccc3)cc2)CCC1 [MK-2206] + CS(=O)(=O)CCNCc1ccc(-c2ccc3ncnc(Nc4ccc(OCc5cccc(F)c5)c(Cl)c4)c3c2)o1 [Lapatinib] (partner 2 µM)
Outline: (§1)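 Values are medians from duplicate plates. Each reflects relative viability, defined as the nuclei count of treated wells over that of vehicle wells. Lung cancer cell lines in 1536-well plates were pin-tool dosed one day after seeding with one drug alone or with a fixed anchor-drug dose plus five library-drug doses (not always all listed) in √10 steps, then fixed, stained and imaged at 4× after 5 days.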

[2] = compound: CS(=O)(=O)N1CCN(Cc2cc3nc(-c4cccc5[nH]ncc45)nc(N4CCOCC4)c3s2)CC1 [Pictilisib] + O=C(CCCCCCC(=O)Nc1ccccc1)NO [Vorinostat] (partner 1 µM)
Outline: as §1

[3] = compound: CS(=O)(=O)N1CCN(Cc2cc3nc(-c4cccc5[nH]ncc45)nc(N4CCOCC4)c3s2)CC1 [Pictilisib] + COc1cccc2cc(-c3nc([C@H]4CC[C@H](C(=O)O)CC4)n4ncnc(N)c34)[nH]c12 [OSI-027] (partner 0.5 µM)
Outline: as §1

[4] = compound: NC1(c2ccc(-c3nc4ccn5c(=O)[nH]nc5c4cc3-c3ccccc3)cc2)CCC1 [MK-2206] + O=C(CCCCCCC(=O)Nc1ccccc1)NO [Vorinostat] (partner 1 µM)
Outline: as §1

[5] = compound: CS(=O)(=O)N1CCN(Cc2cc3nc(-c4cccc5[nH]ncc45)nc(N4CCOCC4)c3s2)CC1 [Pictilisib] + CCNC(=O)c1noc(-c2cc(C(C)C)c(O)cc2O)c1-c1ccc(CN2CCOCC2)cc1 [Luminespib] (partner 0.01 µM)
Outline: as §1

**Q.** For UMC-11, which relative viability ([1]; first compound 0.01 µM) is on record?
**A.** The relative viability was 1.27.

**Q.** What about the relative viability ([1]; first compound 0.03162 µM) of the same cell line?
**A.** Its relative viability is 1.1.

**Q.** What about the relative viability ([1]; first compound 0.3162 µM) of the same cell line?
**A.** The relative viability was 0.99.

**Q.** And the relative viability ([1]; first compound 1 µM)?
**A.** The relative viability was 0.941.

**Q.** And the relative viability ([2]; first compound 0.02 µM)?
**A.** Its relative viability is 0.366.

**Q.** What about the relative viability ([2]; first compound 0.06325 µM) of the same cell line?
**A.** The relative viability was 0.414.

**Q.** And the relative viability ([2]; first compound 0.6325 µM)?
**A.** The relative viability was 0.464.

**Q.** What about the relative viability ([2]; first compound 2 µM) of the same cell line?
**A.** Its relative viability is 0.354.

**Q.** And the relative viability ([3]; first compound 0.02 µM)?
**A.** The relative viability was 0.538.

**Q.** And the relative viability ([3]; first compound 0.06325 µM)?
**A.** The relative viability was 0.526.

**Q.** What about the relative viability ([3]; first compound 0.6325 µM) of the same cell line?
**A.** The relative viability was 0.48.

**Q.** And the relative viability ([3]; first compound 2 µM)?
**A.** Its relative viability is 0.383.

**Q.** And the relative viability ([4]; first compound 0.01 µM)?
**A.** Its relative viability is 0.388.

**Q.** And the relative viability ([4]; first compound 0.03162 µM)?
**A.** Its relative viability is 0.365.

**Q.** And the relative viability ([4]; first compound 0.3162 µM)?
**A.** The relative viability was 0.416.

**Q.** What about the relative viability ([4]; first compound 1 µM) of the same cell line?
**A.** Its relative viability is 0.379.

**Q.** And the relative viability ([5]; first compound 0.02 µM)?
**A.** The relative viability was 1.02.

**Q.** And the relative viability ([5]; first compound 0.06325 µM)?
**A.** Its relative viability is 1.15.

**Q.** And the relative viability ([5]; first compound 0.6325 µM)?
**A.** Its relative viability is 1.09.

**Q.** What about the relative viability ([5]; first compound 2 µM) of the same cell line?
**A.** Its relative viability is 0.988.
